Laboratory results taken from ChEMBL document CHEMBL2401678, “Synthesis and changes in affinity for NOP and opioid receptors of novel hexapeptides containing β(2)-tryptophan analogues” (Bioorg Med Chem Lett, 2013).
Active and inactive are the calls of the source. The calls are words filed in the database; no cut-off is given here. *1 amine or outer side, *2 acyl side, *3 side chain or, on linkers, in order; H or OH if unused. Where a SMILES comes first, the peptide text is derived from it. [ ]: non-standard residue; d: D form. X2 = COc1ccc2[nH]cc([C@H](CN[*:1])C(=O)[*:2])c2c1; X1 = Cn1cc([C@H](CN[*:1])C(=O)[*:2])c2ccccc21

Legend:
[1] = target: Nociceptin receptor (Rattus norvegicus) (UniProt P35370); assay: Activity at Wistar rat NOP receptor assessed as inhibition of low-frequency electrically-stimulated vas deferens contraction at 1 x 10^-6 M in presence of naloxone relative to control
[2] = target: Nociceptin receptor (Rattus norvegicus) (UniProt P35370); assay: Activity at Wistar rat NOP receptor assessed as inhibition of low-frequency electrically-stimulated vas deferens contraction at 1 x 10^-11 to 1 x 10^-5 M in presence of naloxone
Nociceptin receptor [3] = target: T1, Nociceptin receptor (Rattus norvegicus, UniProt P35370); assay: Activity at Wistar rat NOP receptor assessed as inhibition of low-frequency electrically-stimulated vas deferens contraction in presence of naloxone
[4] = target: Nociceptin receptor (Rattus norvegicus) (UniProt P35370); assay: Activity at Wistar rat NOP receptor assessed as inhibition of low-frequency electrically-stimulated vas deferens contraction at 1 x 10^-6 M relative to control
Nociceptin receptor [5] = target: T1, Nociceptin receptor; assay: Activity at Wistar rat NOP receptor assessed as inhibition of low-frequency electrically-stimulated vas deferens contraction
[6] = target: T2, Nociceptin/mu opioid receptor (Rattus norvegicus) (UniProt P33535+P35370); assay: Activity at Wistar rat NOP/mu opioid receptor assessed as inhibition of low-frequency electrically-stimulated vas deferens contraction at 1 x 10^-5 M in presence of naloxone relative to control; format: protein assay
[7] = target: Mu-type opioid receptor (Rattus norvegicus) (UniProt P33535); assay: Activity at Wistar rat mu opioid receptor assessed as inhibition of low-frequency electrically-stimulated vas deferens contraction up to 1 x 10^-5 M in presence of naloxone benzoylhydrazone
[8] = target: T2, Nociceptin/mu opioid receptor (Rattus norvegicus); assay: Activity at Wistar rat NOP/mu opioid receptor assessed as inhibition of low-frequency electrically-stimulated vas deferens contraction at 1 x 10^-5 M relative to control; format: protein assay
[9] = target: T3, Nociceptin/mu opioid receptor (Rattus norvegicus, UniProt P33535+P35370); assay: Activity at Wistar rat NOP/mu opioid receptor assessed as inhibition of low-frequency electrically-stimulated vas deferens contraction; format: protein assay
[10] = target: T3, Nociceptin/mu opioid receptor; assay: Activity at Wistar rat NOP/mu opioid receptor assessed as inhibition of low-frequency electrically-stimulated vas deferens contraction in presence of naloxone; format: protein assay
[11] = target: Mu-type opioid receptor (Rattus norvegicus) (UniProt P33535); assay: Activity at Wistar rat mu opioid receptor assessed as inhibition of low-frequency electrically-stimulated vas deferens contraction at 1 x 10^-6 to 1 x 10^-5 M
[12] = target: Nociceptin receptor (Rattus norvegicus) (UniProt P35370); assay: Activity at Wistar rat NOP receptor assessed as inhibition of low-frequency electrically-stimulated vas deferens contraction at 1 x 10^-6 M in presence of naloxone benzoylhydrazone
[13] = target: T2, Nociceptin/mu opioid receptor (Rattus norvegicus); assay: Activity at Wistar rat NOP/mu opioid receptor assessed as inhibition of low-frequency electrically-stimulated vas deferens contraction at 1 x 10^-5 M in presence of naloxone benzoylhydrazone; format: protein assay
[14] = target: T2, Nociceptin/mu opioid receptor (Rattus norvegicus); assay: Activity at Wistar rat NOP/mu opioid receptor assessed as inhibition of low-frequency electrically-stimulated vas deferens contraction at 1 x 10^-5 M in presence of naloxone; format: protein assay
Mu-type opioid receptor [15] = target: T4, Mu-type opioid receptor (Rattus norvegicus, UniProt P33535); assay: Activity at Wistar rat mu opioid receptor assessed as inhibition of low-frequency electrically-stimulated vas deferens contraction in presence of naloxone
[16] = target: Mu-type opioid receptor (Rattus norvegicus) (UniProt P33535); assay: Activity at Wistar rat mu opioid receptor assessed as inhibition of low-frequency electrically-stimulated vas deferens contraction at 1 x 10^-5 M in presence of naloxone relative to control
[17] = target: Mu-type opioid receptor (Rattus norvegicus) (UniProt P33535); assay: Activity at Wistar rat mu opioid receptor assessed as inhibition of low-frequency electrically-stimulated vas deferens contraction at 1 x 10^-11 to […] in presence of naloxone
[18] = target: Mu-type opioid receptor (Rattus norvegicus) (UniProt P33535); assay: Activity at Wistar rat mu opioid receptor assessed as inhibition of low-frequency electrically-stimulated vas deferens contraction at 1 x 10^-5 M relative to control
Mu-type opioid receptor [19] = target: T4, Mu-type opioid receptor; assay: Activity at Wistar rat mu opioid receptor assessed as inhibition of low-frequency electrically-stimulated vas deferens contraction
[20] = target: Mu-type opioid receptor (Rattus norvegicus) (UniProt P33535); assay: Activity at Wistar rat mu opioid receptor assessed as inhibition of low-frequency electrically-stimulated vas deferens contraction at 1 x 10^-6 to 1 x 10^-5 M in presence of naloxone benzoylhydrazone

Nociceptin receptor (Rattus norvegicus), sequence (P35370 whole entry): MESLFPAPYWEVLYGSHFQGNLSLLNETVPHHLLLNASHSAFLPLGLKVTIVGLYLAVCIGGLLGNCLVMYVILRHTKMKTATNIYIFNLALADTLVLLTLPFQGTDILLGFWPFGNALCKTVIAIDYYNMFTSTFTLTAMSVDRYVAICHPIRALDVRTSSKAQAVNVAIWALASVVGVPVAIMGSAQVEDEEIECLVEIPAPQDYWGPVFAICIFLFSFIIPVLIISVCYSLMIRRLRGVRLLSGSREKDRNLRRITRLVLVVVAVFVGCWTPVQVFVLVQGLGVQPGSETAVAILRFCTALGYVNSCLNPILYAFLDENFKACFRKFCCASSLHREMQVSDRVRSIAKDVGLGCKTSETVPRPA
T1 sequence (P35370 whole entry): as above
Mu-type opioid receptor (Rattus norvegicus), sequence (P33535 whole entry): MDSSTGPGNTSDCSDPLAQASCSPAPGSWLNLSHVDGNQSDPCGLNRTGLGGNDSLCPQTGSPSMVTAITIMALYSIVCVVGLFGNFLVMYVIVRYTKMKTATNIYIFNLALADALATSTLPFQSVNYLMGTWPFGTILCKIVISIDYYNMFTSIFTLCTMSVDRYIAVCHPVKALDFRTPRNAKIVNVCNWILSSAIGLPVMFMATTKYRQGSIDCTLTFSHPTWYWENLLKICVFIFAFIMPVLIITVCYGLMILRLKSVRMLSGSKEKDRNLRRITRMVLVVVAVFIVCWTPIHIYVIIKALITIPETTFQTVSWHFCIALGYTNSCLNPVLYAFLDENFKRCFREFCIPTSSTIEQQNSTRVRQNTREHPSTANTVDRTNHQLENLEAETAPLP
T2 sequence (P33535 whole entry, looked up): as the sequence (P33535 whole entry) above
T2 sequence (P35370 whole entry, looked up): as the sequence (P35370 whole entry) above
T4 sequence (P33535 whole entry): as the sequence (P33535 whole entry) above

`COc1ccc2[nH]cc([C@H](CNC(=O)[C@H](CCCNC(=N)N)NC(=O)[C@H](Cc3ccc(O)cc3)NC(=O)[C@H](Cc3ccc(O)cc3)NC(=O)[C@H](CCCNC(=N)N)NC(C)=O)C(=O)N[C@@H](CCCCN)C(N)=O)c2c1` (Ac-RYYR[X2]K-NH2) was tested, and the Emax [1] was -12%, the inhibition [2] was “inactive” and the EC50 (Nociceptin receptor [3]) was 1.66 µM. For the same compound, the Emax [4] was -52% and the EC50 (Nociceptin receptor [5]) was 1.41 µM.

In the case of `COc1ccc2[nH]cc([C@H](CNC(=O)[C@H](CCSC)NC(=O)[C@H](Cc3ccccc3)NC(=O)[C@H](CCCNC(=N)N)NC(C)=O)C(=O)N[C@@H](CCSC)C(=O)N[C@@H](CCCCN)C(N)=O)c2c1` (Ac-RFM[X2]MK-NH2), the Emax [6] is reported as -14%, the inhibition [7] is reported as “inactive” and the Emax [8] is reported as -34%. For the same compound, the pEC50 [9] was 5.78, the pEC50 [10] was 6.26 and the inhibition [11] was “Active”.

For Ac-RYYRWK-NH2, the Emax [1] was -31%, the EC50 (Nociceptin receptor [3]) was 0.00617 µM and the Emax [4] was -36%. The EC50 (Nociceptin receptor [5]) was 0.0158 µM and the inhibition [12] was “inactive”.

With `CC(=O)N[C@@H](CCCNC(=N)N)C(=O)N[C@@H](Cc1ccc(O)cc1)C(=O)N[C@@H](Cc1ccc(O)cc1)C(=O)N[C@@H](CCCNC(=N)N)C(=O)NC[C@H](C(=O)N[C@@H](CCCCN)C(N)=O)c1cn(C)c2ccccc12` (Ac-RYYR[X1]K-NH2) the Emax [6] was -17%, the Emax [8] was -36% and the inhibition [13] was “inactive”. For the same compound, the inhibition [14] was “Active”, the pEC50 [9] was 6.5 and the pEC50 [10] was 6.21.

For `CSCC[C@H](NC(=O)[C@H](Cc1ccccc1)NC(=O)[C@H](CCCNC(=N)N)NC(C)=O)C(=O)NC[C@H](C(=O)N[C@@H](CCSC)C(=O)N[C@@H](CCCCN)C(N)=O)c1cn(C)c2ccccc12` (Ac-RFM[X1]MK-NH2), the EC50 (Mu-type opioid receptor [15]) was 1.62 µM, the Emax [16] was -15% and the inhibition [17] was “inactive”. For the same compound, the Emax [18] was -50%, the EC50 (Mu-type opioid receptor [19]) was 1.23 µM and the inhibition [20] was “inactive”.

Ac-RFMWMK-NH2 was tested, and the EC50 (Mu-type opioid receptor [15]) was 1.15 µM, the Emax [16] was -14% and the inhibition [17] was “inactive”. For the same compound, the Emax [18] was -52%, the EC50 (Mu-type opioid receptor [19]) was 1.02 µM and the inhibition [20] was “inactive”.

In the case of `C[C@H](NC(=O)CNC(=O)[C@@H](NC(=O)[C@H](Cc1ccccc1)NC(=O)CNC(=O)CNC(=O)[C@@H](N)Cc1ccccc1)[C@@H](C)O)C(=O)N[C@@H](CCCNC(=N)N)C(=O)N[C@@H](CCCCN)C(=O)N[C@@H](CO)C(=O)N[C@@H](C)C(=O)N[C@@H](CCCNC(=N)N)C(=O)N[C@@H](CCCCN)C(N)=O`, the Emax [4] is reported as -73%.
